Drawing on US10821115B2, “Compounds that inhibit Mcl-1 protein” (priority 2017, dated 2020), this text covers IC50 for 17 molecules.

The target of assay [1] is recombinant human Mcl-1 (residues 171-327) / Bim interaction (Homo sapiens (Human), UniProt Q07820). In words: biochemical. The format is binding. The note with it: read-out: Mcl-1 HTRF IC50. For orientation: In TR-FRET formats the signal depends on donor and acceptor labels being close together.
Assay [2] has as its system human multiple myeloma cell line, OPM-2. In words: Cell viability assay (OPM-2 10 FBS), CellTiter-Glo. The format is cell-based. In a few lines:
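OPM-2 cells at 3000 cells/well in RPMI 1640 with 10% FBS were exposed to serially diluted compounds for 16 h at 37 °C, 5% CO2.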
(In general: Cellular ATP, detected with luciferase, serves as a proxy for viable cell number.)

The mark [3] stands for this setting: TR-FRET, Mcl-1(171-327) / biotin-Bim (51-76).
The mark [4] stands for this setting: Homo sapiens, OPM-2, 16 h, read-out: OPM-2 10% FBS IC50 IP, OPM-2 cells, 10% FBS, 16 h, CellTiter-Glo.
[5] abbreviates: read-out: OPM-2 10% FBS IC50 IP, OPM-2 cells, 10% FBS, 16 h, CellTiter-Glo.
[6] abbreviates: 0.1 nM Mcl-1(171-327), 0.05 nM biotin-Bim (51-76).
Setting [7] is: Homo sapiens, OPM-2, 16 h, read-out: OPM-2 10% FBS IC50 IP, OPM-2 cells, 10% FBS, 16 h incubation.
Where [8] appears, read: read-out: OPM-2 10% FBS IC50 IP, OPM-2 cells, 10% FBS, 16 h incubation.

Like-named read-outs stand apart in the source and are kept apart here.

Chain of recombinant human Mcl-1 (residues 171-327) / Bim interaction (Q07820 171-327): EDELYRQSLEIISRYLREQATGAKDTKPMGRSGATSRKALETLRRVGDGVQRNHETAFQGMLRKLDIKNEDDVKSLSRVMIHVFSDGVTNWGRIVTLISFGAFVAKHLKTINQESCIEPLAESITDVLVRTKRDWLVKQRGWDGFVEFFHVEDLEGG

Consider `C[C@@H]1[C@@H](C)CCC[C@](O)(CC[S@@+](C)[O-])[C@@H]2CC[C@H]2CN2C[C@@]3(CCCc4cc(Cl)ccc43)COc3ccc(cc32)C(=O)NS1(=O)=O` [Example 100330, (1S,3′R,6′R,7′S,11′S,12′R)-6-chloro-7′-hydroxy-11′,12′-dimethyl-7′-(2-((R)-methylsulfinyl)ethyl)-3,4-dihydro-2H,15′H-spiro[naphthalene-1,22′-[20]oxa[13]thia[1,14]diazatetracyclo [14.7.2.0~3,6~.0~19,24~]pentacosa[16,18,24]trien]-15′-one 13′,13′-dioxide], for which the IC50 – broadly, the point on the concentration scale where inhibition reaches its midpoint – amounted to 0.083 nM in assay [1] (setting [3]) and 8260 nM in assay [2] (setting [4]).
Turning to `CO[C@@]1(Cc2ncc(C)o2)/C=C/C[C@H](C)[C@@H](C)S(=O)(=O)NC(=O)c2ccc3c(c2)N(C[C@@H]2CC[C@H]21)C[C@@]1(CCCc2cc(Cl)ccc21)CO3` [Example 100529, (1S,3′R,6′R,7′S,8′E,11′S,12′R)-6-chloro-7′-methoxy-11′,12′-dimethyl-7′-((5-methyl-1,3-oxazol-2-yl)methyl)-3,4-dihydro-2H,15′H-spiro[naphthalene-1,22′-[20]oxa[13]thia[1,14]diazatetracyclo [14.7.2.0~3,6~.0~19,24~]pentacosa[8,16,18,24]tetraen]-15′-one 13′,13′-dioxide], the figures for the IC50 in assay [1] (setting [3]) and in assay [2] (setting [4]) were 0.287 nM and 245 nM, respectively.
Regarding `C[C@@H]1[C@@H](C)C/C=C/[C@](O)(C2SCCCS2)[C@@H]2CC[C@H]2CN2C[C@@]3(CCCc4cc(Cl)ccc43)COc3ccc(cc32)C(=O)NS1(=O)=O` [Example 100259, (1S,3′R,6′R,7′R,8′E,11′S,12′R)-6-chloro-7′-(1,3-dithian-2-yl)-7′-hydroxy-11′,12′-dimethyl-3,4-dihydro-2H,15′H-spiro[naphthalene-1,22′-[20]oxa[13]thia[1,14]diazatetracyclo [14.7.2.0~3,6~.0~19,24~]pentacosa[8,16,18,24]tetraen]-15′-one 13′,13′-dioxide], the IC50 in assay [1] (setting [3]) was 6.18 nM; in assay [2] (setting [4]) it was 1250 nM.
As for `C=CC[C@]1(O)CCC[C@H](C)[C@@H](C)S(=O)(=O)NC(=O)c2ccc3c(c2)N(C[C@@H]2CC[C@H]21)C[C@@]1(CCCc2cc(Cl)ccc21)CO3` (single isomer, unassigned) [Example 100273], the IC50 in assay [1] (setting [3]) is 5.66 nM; in assay [2] (setting [5]) it was 8660 nM.
As to `COCCOCCN1CCN(C[C@]2(OC)/C=C/C[C@H](C)[C@@H](C)S(=O)(=O)NC(=O)c3ccc4c(c3)N(C[C@@H]3CC[C@H]32)C[C@@]2(CCCc3cc(Cl)ccc32)CO4)CC1` [Example 332, (1S,3′R,6′R,7′S,8′E,11′S,12′R)-6-chloro-7′-methoxy-7′-((4-(2-(2-methoxyethoxy)ethyl)-1-piperazinyl)methyl)-11′,12′-dimethyl-3,4-dihydro-2H,15′H-spiro[naphthalene-1,22′-[20]oxa[13]thia[1,14]diazatetracyclo [14.7.2.0~3,6~.0~19,24~]pentacosa[8,16,18,24]tetraen]-15′-one 13′,13′-dioxide], the IC50 came to 0.096 nM in assay [1] (setting [6]) and 89 nM in assay [2] (setting [7]).
For `CO[C@]1(CN2CCN3CCCC[C@@H]3C2)/C=C/C[C@H](C)[C@@H](C[C@H](C)O)S(=O)(=O)NC(=O)c2ccc3c(c2)N(C[C@@H]2CC[C@H]21)C[C@@]1(CCCc2cc(Cl)ccc21)CO3` (single isomer, unassigned) [Example 362], the IC50 in assay [1] (setting [6]) was 0.061 nM; in assay [2] (setting [8]), 58 nM.
As to `CO[C@@]1(Cc2cc(C)on2)/C=C/C[C@H](C)[C@@H](C)S(=O)(=O)NC(=O)c2ccc3c(c2)N(C[C@@H]2CC[C@H]21)C[C@@]1(CCCc2cc(Cl)ccc21)CO3` [Example 100552, (1S,3′R,6′R,7′S,8′E,11′S,12′R)-6-chloro-7′-methoxy-11′,12′-dimethyl-7′-((5-methyl-1,2-oxazol-3-yl)methyl)-3,4-dihydro-2H,15′H-spiro[naphthalene-1,22′-[20]oxa[13]thia[1,14]diazatetracyclo [14.7.2.0~3,6~.0~19,24~]pentacosa[8,16,18,24]tetraen]-15′-one 13′,13′-dioxide], the IC50 in assay [1] (setting [3]) turned out to be 0.065 nM; in assay [2] (setting [4]), 957 nM.
Regarding `CO[C@]1(CN2CCN3CCCC[C@@H]3C2)/C=C/C[C@H](C)[C@@H](CC2CCC2)S(=O)(=O)NC(=O)c2ccc3c(c2)N(C[C@@H]2CC[C@H]21)C[C@@]1(CCCc2cc(Cl)ccc21)CO3` [Example 40, (1S,3′R,6′R,7′R,8′E,11′S,12′R)-6-chloro-12′-(cyclobutylmethyl)-7′-methoxy-11′-methyl-7′-((9aR)-octahydro-2H-pyrido[1,2-a]pyrazin-2-ylmethyl)-3,4-dihydro-2H,15′H-spiro[naphthalene-1,22′-[20]oxa[13]thia[1,14]diazatetracyclo [14.7.2.0~3,6~.0~19,24~]pentacosa[8,16,18,24]tetraen]-15′-one 13′,13′-dioxide], the IC50 in assay [1] (setting [6]) is 0.444 nM; in assay [2] (setting [7]), 571 nM.
The like results for `CCN1CCN(C[C@@]2(OC)/C=C/C[C@H](C)[C@@H](C)S(=O)(=O)NC(=O)c3ccc4c(c3)N(C[C@@H]3CC[C@H]32)C[C@@]2(CCCc3cc(Cl)ccc32)CO4)CC1(C)C` [Example 330, (1S,3′R,6′R,7′R,8′E,11′S,12′R)-6-chloro-7′-((4-ethyl-3,3-dimethyl-1-piperazinyl)methyl)-7′-methoxy-11′,12′-dimethyl-3,4-dihydro-2H,15′H-spiro[naphthalene-1,22′-[20]oxa[13]thia[1,14]diazatetracyclo [14.7.2.0~3,6~.0~19,24~]pentacosa[8,16,18,24]tetraen]-15′-one 13′,13′-dioxide] were, in that order, 0.425 nM and 278 nM.
Regarding `CO[C@@]1(CN2CCN([C@@H]3CCOC3)CC2)/C=C/C[C@H](C)[C@@H](C)S(=O)(=O)NC(=O)c2ccc3c(c2)N(C[C@@H]2CC[C@H]21)C[C@@]1(CCCc2cc(Cl)ccc21)CO3` (single isomer, unassigned) [Example 286], the results for the IC50 in assay [1] (setting [6]) and in assay [2] (setting [8]) were 0.155 nM and 50 nM, respectively.
Consider `C[C@@H]1[C@@H](C)CCC[C@](O)([C@@H](C)C(=O)N(C)C)[C@@H]2CC[C@H]2CN2C[C@@]3(CCCc4cc(Cl)ccc43)COc3ccc(cc32)C(=O)NS1(=O)=O` (single isomer, unassigned) [Example 100117], for which the results for the IC50 in assay [1] (setting [3]) and in assay [2] (setting [5]) were 2.4 nM and 3170 nM, respectively.
For `C[C@@H]1[C@@H](C)C/C=C/[C@@](O)(CC(=O)O)[C@@H]2CC[C@H]2CN2C[C@@]3(CCCc4cc(Cl)ccc43)COc3ccc(cc32)C(=O)NS1(=O)=O` [Example 100101, ((1S,3′R,6′R,7′S,8′E,11′S,12′R)-6-chloro-7′-hydroxy-11′,12′-dimethyl-13′,13′-dioxido-15′-oxo-3,4-dihydro-2H-spiro[naphthalene-1,22′-[20]oxa[13]thia[1,14]diazatetracyclo [14.7.2.0~3,6~.0~19,24~]pentacosa[8,16,18,24]tetraen]-7′-yl)acetic acid], the figures for the 50% inhibitory concentration (IC50) in assay [1] (setting [3]) and in assay [2] (setting [4]) were 0.062 nM and 2600 nM, respectively.
Turning to `CCCO[C@]1(CN2CCN(C(C)C)[C@H](C)C2)/C=C/C[C@H](C)[C@@H](C)S(=O)(=O)NC(=O)c2ccc3c(c2)N(C[C@@H]2CC[C@H]21)C[C@@]1(CCCc2cc(Cl)ccc21)CO3` [Example 368, (1S,3′R,6′R,7′R,8′E,11′S,12′R)-6-chloro-11′,12′-dimethyl-7′-(((3R)-3-methyl-4-(2-propanyl)-1-piperazinyl)methyl)-7′-propoxy-3,4-dihydro-2H,15′H-spiro[naphthalene-1,22′-[20]oxa[13]thia[1,14]diazatetracyclo [14.7.2.0~3,6~.0~19,24~]pentacosa[8,16,18,24]tetraen]-15′-one 13′,13′-dioxide], the IC50 in assay [1] (setting [6]) stood at 0.069 nM; in assay [2] (setting [7]) it was 68 nM.
On to `C[C@@H]1[C@@H](C)C/C=C/[C@](O)(CN(C)CCO)[C@@H]2CC[C@H]2CN2C[C@@]3(CCCc4cc(Cl)ccc43)COc3ccc(cc32)C(=O)NS1(=O)=O` [Example 129], for which the results for the IC50 in assay [1] (setting [6]) and in assay [2] (setting [7]) were 1.69 nM and 2630 nM, respectively.
As to `C[C@@H]1[C@@H](C)CCCC2(CN(S(C)(=O)=O)CCO2)[C@@H]2CC[C@H]2CN2C[C@@]3(CCCc4cc(Cl)ccc43)COc3ccc(cc32)C(=O)NS1(=O)=O` (stereo partly shown) [Example 466], the IC50 in assay [1] (setting [6]) is 0.9 nM; in assay [2] (setting [8]) it was 446 nM.
Consider `COCC(C)(C)N1CCN(C[C@@]2(OC)/C=C/C[C@H](C)[C@@H](C)S(=O)(=O)NC(=O)c3ccc4c(c3)N(C[C@@H]3CC[C@H]32)C[C@@]2(CCCc3cc(Cl)ccc32)CO4)CC1` [Example 333, (1S,3′R,6′R,7′R,8′E,11′S,12′R)-6-chloro-7′-methoxy-7′-((4-(2-methoxy-1,1-dimethylethyl)-1-piperazinyl)methyl)-11′,12′-dimethyl-3,4-dihydro-2H,15′H-spiro[naphthalene-1,22′-[20]oxa[13]thia[1,14]diazatetracyclo [14.7.2.0~3,6~.0~19,24~]pentacosa[8,16,18,24]tetraen]-15′-one 13′,13′-dioxide], for which the IC50 is 0.088 nM in assay [1] (setting [6]) and 82 nM in assay [2] (setting [7]).
Take `C[C@@H]1[C@@H](C)C/C=C/[C@@](O)(CC(=O)N(C)CCN(C)C)[C@@H]2CC[C@H]2CN2C[C@@]3(CCCc4cc(Cl)ccc43)COc3ccc(cc32)C(=O)NS1(=O)=O` [Example 100282, 2-((1S,3′R,6′R,7′S,8′E,11′S,12′R)-6-chloro-7′-hydroxy-11′,12′-dimethyl-13′,13′-dioxido-15′-oxo-3,4-dihydro-2H-spiro[naphthalene-1,22′-[20]oxa[13]thia[1,14]diazatetracyclo [14.7.2.0~3,6~.0~19,24~]pentacosa[8,16,18,24]tetraen]-7′-yl)-N-(2-(dimethylamino)ethyl)-N-methylacetamide]: the 50% inhibitory concentration (IC50) in assay [1] (setting [3]) amounted to 0.268 nM; in assay [2] (setting [5]), 1280 nM.
